Laboratory results published in article PMC11392244, “Characterization of a unique catechol-O-methyltransferase as a molecular drug target in parasitic filarial nematodes” (PLOS Neglected Tropical Diseases, 2024).
pEC50, pIC50: −log10 of the molar value. “And” between values parts separate entries of the source, which are not always exact repeats. Equal values may be shown once.

Columns and labels:
[1] = test system: mammalian cells; settings: read-out: Cytotoxicity IC50, ref Tan et al., [31]; cited from earlier work
[2] = test system: D. immitis microfilariae; assay: In vitro efficacy against live D. immitis microfilariae (motility, completely immotile %); type: cell-based, Dirofilaria immitis

**Q.** Which results are given for Ivermectin [reference compound]?
**A.** pIC50 [1]: 4.43; Completely Immotile Microfilariae (%) ([2]; 2.5 µM, 0 h): 0%; Mean completely Immotile (%) ([2]; 2.5 µM, 0 h): 0%; Completely Immotile Microfilariae (%) ([2]; 2.5 µM, 24 h): 1% and 2%; Mean completely Immotile (%) ([2]; 2.5 µM, 24 h): 1.7%; Completely Immotile Microfilariae (%) ([2]; 2.5 µM, 48 h): 1.5% and 2.5% and 2%; Mean completely Immotile (%) ([2]; 2.5 µM, 48 h): 2.0%; Completely Immotile Microfilariae (%) ([2]; 2.5 µM, 72 h): 2% and 2.5% and 3%; Mean completely Immotile (%) ([2]; 2.5 µM, 72 h): 2.5%; Completely Immotile Microfilariae (%) ([2]; 2.5 µM, 90 h): 3% and 4% and 4.5%; Mean completely Immotile (%) ([2]; 2.5 µM, 96 h): 3.8%; Completely Immotile Microfilariae (%) ([2]; 2.5 µM, 120 h): 5% and 5.5% and 7%; Mean completely Immotile (%) ([2]; 2.5 µM, 120 h): 5.83%; Mean completely Immotile (%) ([2]; 5 µM, 0 h): 0%; Completely Immotile Microfilariae (%) ([2]; 5.0 µM, 0 h): 0%; Mean completely Immotile (%) ([2]; 5 µM, 24 h): 2.3%; Completely Immotile Microfilariae (%) ([2]; 5.0 µM, 24 h): 2% and 3%; Mean completely Immotile (%) ([2]; 5 µM, 48 h): 3.7%; Completely Immotile Microfilariae (%) ([2]; 5.0 µM, 48 h): 3% and 4%; Mean completely Immotile (%) ([2]; 5 µM, 72 h): 5.0%; Completely Immotile Microfilariae (%) ([2]; 5.0 µM, 72 h): 5% and 4.5% and 5.5%; Completely Immotile Microfilariae (%) ([2]; 5.0 µM, 90 h): 7.5% and 7% and 8.5%; Mean completely Immotile (%) ([2]; 5 µM, 96 h): 7.7%; Mean completely Immotile (%) ([2]; 5 µM, 120 h): 15.0%; Completely Immotile Microfilariae (%) ([2]; 5.0 µM, 120 h): 15% and 12.5% and 17.5%; Completely Immotile Microfilariae (%) ([2]; 10 µM, 0 h): 0%; Mean completely Immotile (%) ([2]; 10 µM, 0 h): 0%; Completely Immotile Microfilariae (%) ([2]; 10 µM, 24 h): 3% and 4%; Mean completely Immotile (%) ([2]; 10 µM, 24 h): 3.3%; Completely Immotile Microfilariae (%) ([2]; 10 µM, 48 h): 5% and 6%; Mean completely Immotile (%) ([2]; 10 µM, 48 h): 5.7%; Completely Immotile Microfilariae (%) ([2]; 10 µM, 72 h): 7.5% and 8.5%; Mean completely Immotile (%) ([2]; 10 µM, 72 h): 7.8%; Completely Immotile Microfilariae (%) ([2]; 10.0 µM, 90 h): 25% and 28.5% and 30%; Mean completely Immotile (%) ([2]; 10 µM, 96 h): 27.8%; Completely Immotile Microfilariae (%) ([2]; 10 µM, 120 h): 50% and 53.5% and 53%; Mean completely Immotile (%) ([2]; 10 µM, 120 h): 52.2%; Mean completely Immotile (%) ([2]; 15 µM, 0 h): 0%; Completely Immotile Microfilariae (%) ([2]; 15.0 µM, 0 h): 0%; Mean completely Immotile (%) ([2]; 15 µM, 24 h): 3.8%; Completely Immotile Microfilariae (%) ([2]; 15.0 µM, 24 h): 3.5% and 4.5%; Mean completely Immotile (%) ([2]; 15 µM, 48 h): 6.2%; Completely Immotile Microfilariae (%) ([2]; 15.0 µM, 48 h): 6% and 6.7%; Mean completely Immotile (%) ([2]; 15 µM, 72 h): 11.0%; Completely Immotile Microfilariae (%) ([2]; 15.0 µM, 72 h): 10% and 12% and 11%; Completely Immotile Microfilariae (%) ([2]; 15.0 µM, 90 h): 30% and 37% and 33%; Mean completely Immotile (%) ([2]; 15 µM, 96 h): 33.3%; Mean completely Immotile (%) ([2]; 15 µM, 120 h): 72.3%; Completely Immotile Microfilariae (%) ([2]; 15.0 µM, 120 h): 70% and 75% and 72%; Mean completely Immotile (%) ([2]; 20 µM, 0 h): 0%; Completely Immotile Microfilariae (%) ([2]; 20.0 µM, 0 h): 0%; Mean completely Immotile (%) ([2]; 20 µM, 24 h): 11.2%; Completely Immotile Microfilariae (%) ([2]; 20.0 µM, 24 h): 10% and 12.5% and 11%; Mean completely Immotile (%) ([2]; 20 µM, 48 h): 15.7%; Completely Immotile Microfilariae (%) ([2]; 20.0 µM, 48 h): 15% and 17%; Mean completely Immotile (%) ([2]; 20 µM, 72 h): 26.0%; Completely Immotile Microfilariae (%) ([2]; 20.0 µM, 72 h): 25% and 30% and 23%; Completely Immotile Microfilariae (%) ([2]; 20.0 µM, 90 h): 50% and 65% and 49%; Mean completely Immotile (%) ([2]; 20 µM, 96 h): 54.7%; Mean completely Immotile (%) ([2]; 20 µM, 120 h): 90.3%; Completely Immotile Microfilariae (%) ([2]; 20.0 µM, 120 h): 90% and 94% and 87%; Mean completely Immotile (%) ([2]; 30 µM, 0 h): 0%; Completely Immotile Microfilariae (%) ([2]; 30.0 µM, 0 h): 0%; Mean completely Immotile (%) ([2]; 30 µM, 24 h): 27.7%; Completely Immotile Microfilariae (%) ([2]; 30.0 µM, 24 h): 25% and 30% and 28%; Mean completely Immotile (%) ([2]; 30 µM, 48 h): 43.0%; Completely Immotile Microfilariae (%) ([2]; 30.0 µM, 48 h): 40% and 46% and 43%; Mean completely Immotile (%) ([2]; 30 µM, 72 h): 56.0%; Completely Immotile Microfilariae (%) ([2]; 30.0 µM, 72 h): 50% and 60% and 58%; Completely Immotile Microfilariae (%) ([2]; 30.0 µM, 90 h): 80% and 85% and 88%; Mean completely Immotile (%) ([2]; 30 µM, 96 h): 84.3%; Mean completely Immotile (%) ([2]; 30 µM, 120 h): 95.3%; Completely Immotile Microfilariae (%) ([2]; 30.0 µM, 120 h): 95% and 98% and 93%; pEC50 ([2]; read-out: Anti-parasitic EC50): 4.75
